Assay results published in patent US20090004166A1, “Carrier For Enternal Administration” (priority 2004, published 2009).

System: Sprague-Dawley rats
Details: oral gavage, 5 mg/kg, heat source ~45° C.
Method: The effect was measured by comparison of times taken for a rat to withdraw its paw in response to heat when medicated and unmedicated with morphine.
Animals: Nine conscious Sprague-Dawley rats weighing between 350-450 grams each Treatment groups: • 1. […] Morphine with TPm: morphine HCl (14%) in a carrier containing water (59%) and a tocopheryl phosphate mixture (27%) (TPm). The TPm contained mono-tocopheryl phosphate and di-tocopheryl phosphate.
Formulations 2 and 3 were diluted with water and the final morphine concentration was made up to 5 mg/ml. […] This liquid formulation was then delivered to the animals by oral gavage (tube into stomach).
The experiment used nine rats that were divided into three groups. […]
Analgesic testing was performed at 1, 2, 4 and 6 hours and at each time point withdrawal latency was measured three times on each rat (with at least five minutes rest if using the same paw).
A plantar analgesiometer designed for rapid and efficient screening of analgesia levels in small laboratory animals was used. The device applied a heat source (˜45° C. from an infrared light) to the animal's hindpaw and the time taken to withdraw the paw from the heat source was measured (paw withdrawal latency). […] The animal was placed on a hot plate, confined by a clear acrylic cage which surrounds the plate and paw withdrawal response was monitored. […]

CN1CC[C@]23c4c5ccc(O)c4O[C@H]2[C@@H](O)C=C[C@H]3[C@H]1C5.O=S(=O)(O)O [morphine sulphate]
paw withdrawal latency (analgesia): increase in latency
